Measured values taken from US20260216239A1 (Arizona Board of Regents on Behalf of the University of …, priority 2020, published 2026).
“Also recorded” adds a separate entry of the source.

Key:
Experiment in all cases: Thrombelastography in human plasma of venom procoagulant activity after isolated exposure of venom to compounds
Type in all cases: biochemical
[1] = system: Oxyuranus microlepidotus venom; settings: venom 1 μg/ml in plasma; for procoagulant activity of venom: venom exposed ≥5 min in PBS to 100 μM CORM-2, 100 μM RuCl3 or both
Method: (§1) Thrombelastographic analyses. The volumes of subsequently described plasmatic and other additives summed to a final volume of 360 μl. Samples were composed of 320 μl of plasma; 16.4 μl of PBS, 20 μl of 200 mM CaCl2), and 3.6 μl of PBS or venom mixture, which were pipetted into a disposable cup in a Thrombelastograph® hemostasis system (Model 5000, Haemonetics Inc., Braintree, MA, USA) at 37° C., and then rapidly mixed by moving the cup up against and then away from the plastic pin five times. The following viscoelastic parameters described previously (see, Nielsen V G (2019) J Thromb Thrombolysis 47, 73-79; Gessner G, et al., (2017) Eur J Pharmacol 815, 33-41; Nielsen V G, Wagner M T, Frank N (2020) Int J Mol Sci 21, 2082; Lazić D, Arsenijević A, Puchta R, Bugarčić ŽD, Rilak A (2016) Dalton Trans 45, 4633; Hanif M, et al., (2017) ChemPlusChem 82, 841-847) were measured: time to maximum rate of thrombus generation (TMRTG): this is the time interval (minutes) observed prior to maximum speed of clot growth; maximum rate of thrombus generation (MRTG): this is the maximum velocity of clot growth observed (dynes/cm^2/second); and total thrombus generation (TTG, dynes/cm^2), the final viscoelastic resistance observed after clot formation.
(§2) O. microlepidotus. This venom was exposed to 0 or 100 μM CORM-2 in the presence of 0 or 100 μM RuCl3 in PBS for at least 5 minutes at room temperature prior to placement into plasma followed immediately with commencement of thrombelastographic analysis. The final concentration of this venom in plasma was 1 μg/ml.
(§3) Given the aforementioned, the experimental conditions utilized were: 1) V condition—venom in PBS; 2) Ru(II) condition—venom exposed to CORM-2; 3) Ru(III) condition—venom exposed to RuCl3; 4) Ru(II+III) condition—venom exposed to CORM-2 and RuCl3 simultaneously. After the 5 minute period at room temperature, 3.6 μl of one of these solutions was added to the plasma sample in the plastic thrombelastograph cup.
The volumes of subsequently described plasmatic and other additives summed to a final volume of 360 μl. Samples were composed of 320 μl of plasma; 16.4 μl of PBS, 20 μl of 200 mM CaCl2), and 3.6 μl of PBS or venom mixture, which were pipetted into a disposable cup in a Thrombelastograph® hemostasis system (Model 5000, Haemonetics Inc., Braintree, MA, USA) at 37° C., and then rapidly mixed by moving the cup up against and then away from the plastic pin five times. The following viscoelastic parameters described previously (see, Nielsen, V. G. J Thromb Thrombolysis 2019, 47, 73-79; Gessner, G.; et al., Eur J Pharmacol 2017, 815, 33-41; Nielsen, V. G.; Wagner, M. T.; Frank, N. Int J Mol Sci 2020, 21, 2082; Lazid, D.; et al., Dalton Trans 2016, 45, 4633; Hanif, M.; et al., ChemPlusChem 2017, 82, 841-847) were measured: time to maximum rate of thrombus generation (TMRTG): this is the time interval (minutes) observed prior to maximum speed of clot growth; maximum rate of thrombus generation (MRTG): this is the maximum velocity of clot growth observed (dynes/cm2/second); and total thrombus generation (TTG, dynes/cm2), the final viscoelastic resistance observed after clot formation. […]

Bothrops moojeni venom = settings: venom 2 μg/ml in plasma; for procoagulant activity of venom: venom exposed ≥5 min in PBS to 1 mM CORM-2, 100 μM RuCl3 or both, vs venom alone
Method: as §1
as §2, with “B. moojeni. This venom” for “O. microlepidotus. This venom”, “0 or 1 mM CORM-2 in” for “0 or 100 μM CORM-2 in”, “plasma was 2 μg/ml.” for “plasma was 1 μg/ml.”
as §3
(§4) The volumes of subsequently described plasmatic and other additives summed to a final volume of 360 μl. Samples were composed of 320 μl of plasma; 16.4 μl of PBS, 20 μl of 200 mM CaCl2), and 3.6 μl of PBS or venom mixture, which were pipetted into a disposable cup in a Thrombelastograph® hemostasis system (Model 5000, Haemonetics Inc., Braintree, MA, USA) at 37° C., and then rapidly mixed by moving the cup up against and then away from the plastic pin five times. The following viscoelastic parameters described previously (see, Nielsen, V. G. J Thromb Thrombolysis 2019, 47, 73-79; Gessner, G.; et al., Eur J Pharmacol 2017, 815, 33-41; Nielsen, V. G.; Wagner, M. T.; Frank, N. Int J Mol Sci 2020, 21, 2082; Lazid, D.; et al., Dalton Trans 2016, 45, 4633; Hanif, M.; et al., ChemPlusChem 2017, 82, 841-847) were measured: time to maximum rate of thrombus generation (TMRTG): this is the time interval (minutes) observed prior to maximum speed of clot growth; maximum rate of thrombus generation (MRTG): this is the maximum velocity of clot growth observed (dynes/cm2/second); and total thrombus generation (TTG, dynes/cm2), the final viscoelastic resistance observed after clot formation.
B. moojeni. This venom was exposed to 0 or 1 mM CORM-2 or CORM-3 in the presence of 0 or 100 μM RuCl3 in PBS for at least 5 minutes at room temperature prior to placement into plasma followed immediately with commencement of thrombelastographic analysis. This venom was also exposed to 0 or 1 mM CORM-2 in the presence of 0 or 100 μM carboplatin in another series of experiments. The final concentration of this venom in plasma was 2 μg/ml.
Given the aforementioned, the experimental conditions utilized were: 1) V condition—venom in PBS; 2) Ru(II) condition—venom exposed to CORM-2 or CORM-3; 3) Ru(III) condition—venom exposed to RuCl3; 4) Ru(II+III) condition—venom exposed to CORM-2 or CORM-3 and RuCl3 simultaneously; 5) Pt(II) condition—venom exposed to carboplatin; and 6) Pt+Ru condition—venom exposed to carboplatin and CORM-2.

[2] = system: Calloselasma rhodostoma venom; settings: venom 5 μg/ml in plasma
Method: as §1
C. rhodostoma. […] The final concentration of this venom in plasma was 5 μg/ml.
as §3, §4
C. rhodostoma. […] This venom was also exposed to 0 or 100 μM CORM-2 in the presence of 0 or 100 μM carboplatin in another series of experiments. The final concentration of this venom in plasma was 5 μg/ml.

[3] = system: Heloderma suspectum venom; settings: venom 10 μg/ml in plasma
Method: as §4
as §2, with “H. suspectum. This” for “O. microlepidotus. This”, “or 1 mM CORM-3” for “or 100 μM CORM-2”, “was 10” for “was 1”
as §3, with “CORM-2 or CORM-3;” for “CORM-2;”, “CORM-2 or CORM-3” for “CORM-2”, “simultaneously; 5) Pt(II) condition—venom exposed to carboplatin; and 6) Pt+Ru condition—venom exposed to carboplatin and CORM-2.” for “simultaneously.”

[4] = 100 μM CORM-2, 100 μM RuCl3 or both
[5] = 100 μM carboplatin, 1 mM CORM-2 or both
[6] = 1 mM CORM-2, 100 μM RuCl3 or both
[7] = 50 μM CORM-2, 50 μM RuCl3 or both
[8] = 100 μM carboplatin, 100 μM CORM-2 or both
[9] = venom exposed ≥5 min in PBS to 50 μM CORM-2, 50 μM RuCl3 or both
[10] = 1 mM CORM-3, 100 μM RuCl3 or both
[11] = venom exposed ≥5 min in PBS to 1 mM CORM-3, 100 μM RuCl3 or both
[12] = 100 μM CORM-3, 100 μM RuCl3 or both

**Q.** What does the source list for `[C-]#[O+].[C-]#[O+].[C-]#[O+].[C-]#[O+].[C-]#[O+].[C-]#[O+].[Cl][Ru][Cl].[Cl][Ru][Cl]` [CORM-2, tricarbonyldichlororuthenium(II) dimer]?
**A.** maximum rate of thrombus generation (MRTG) [1, 4]: decrease; time to maximum rate of thrombus generation (TMRTG) [1, 4]: prolonged; also recorded: significant increase; total thrombus generation (TTG) [1, 4]: decrease; procoagulant activity of venom [1]: significant decrease; also recorded: procoagulant activity inhibition; maximum rate of thrombus generation (MRTG) (Bothrops moojeni venom; [5]): decreased; time to maximum rate of thrombus generation (TMRTG) (Bothrops moojeni venom; [5]): significantly increased; maximum rate of thrombus generation (MRTG) (Bothrops moojeni venom; [6]): decrease; time to maximum rate of thrombus generation (TMRTG) (Bothrops moojeni venom; [6]): prolonged; also recorded: significant increase; procoagulant activity of venom (Bothrops moojeni venom): significant loss of activity; also recorded: inhibition of procoagulant activity; maximum rate of thrombus generation (MRTG) [2, 7]: decrease; time to maximum rate of thrombus generation (TMRTG) [2, 7]: increased; also recorded: significant increase; maximum rate of thrombus generation (MRTG) [2, 8]: decrease; time to maximum rate of thrombus generation (TMRTG) [2, 8]: significant increase; total thrombus generation (TTG) [2, 8]: decrease; procoagulant activity of venom [2, 9]: significantly decreased; also recorded: procoagulant activity inhibition

**Q.** Which results are given for `[Cl][Ru]([Cl])[Cl]` [RuCl3, ruthenium(III) chloride]?
**A.** procoagulant activity of venom [1]: did not significantly affect; maximum rate of thrombus generation (MRTG) (Bothrops moojeni venom; [10]): did not significantly change; total thrombus generation (TTG) (Bothrops moojeni venom; [10]): significantly increased; procoagulant activity of venom (Bothrops moojeni venom): no significant effect; also recorded: did not significantly diminish; time to maximum rate of thrombus generation (TMRTG) (Bothrops moojeni venom; [11]): significant increase; procoagulant activity of venom / coagulation kinetic parameters [3, 11]: no significant changes in any of the coagulation kinetic parameters; maximum rate of thrombus generation (MRTG) [2, 7]: decrease; time to maximum rate of thrombus generation (TMRTG) [2, 7]: increase; maximum rate of thrombus generation (MRTG) [2, 12]: decrease; time to maximum rate of thrombus generation (TMRTG) [2, 12]: significant increase; procoagulant activity of venom [2, 9]: significantly diminished

**Q.** Which results are given for “Tricarbonylchloro(glycinato)ruthenium [CORM-3]”?
**A.** maximum rate of thrombus generation (MRTG) (Bothrops moojeni venom; [10]): did not significantly change; total thrombus generation (TTG) (Bothrops moojeni venom; [10]): significantly increased; time to maximum rate of thrombus generation (TMRTG) (Bothrops moojeni venom; [11]): significant increase; maximum rate of thrombus generation (MRTG) [3, 10]: no change; time to maximum rate of thrombus generation (TMRTG) [3, 10]: significant increase; total thrombus generation (TTG) [3, 10]: no change; procoagulant activity of venom [2, 12]: no significant effect
